Drawing on patent US20120071506A1, “METHODS FOR TREATING CNS DISORDERS WITH BICYCLO-SUBSTITUTED 2-IMIDAZOLINE AND 2-IMIDAZOLES” (priority 2006, published 2012), this text covers Ki, Kd and melting point for 25 molecules.

The Ki is a dissociation constant, usually derived from enzyme kinetics or from competition with a known ligand. A lower Ki goes with higher affinity. As usually defined, the Kd is the constant that tells how readily two partners part at equilibrium. Broadly, the melting point is the temperature of the solid-liquid transition.

Where a name gives a salt, the structure may show the parent alone.

The target in the first data set is T1, mouse TAAR1 (Mus musculus, UniProt Q923Y8).
T1 construct: expressed in transfected cells; host or cells: HEK293 cells (ATCC # CRL-1573), stably transfected with pIRESneo2 expression plasmid; membrane preparation
T1 sequence (Q923Y8 whole entry): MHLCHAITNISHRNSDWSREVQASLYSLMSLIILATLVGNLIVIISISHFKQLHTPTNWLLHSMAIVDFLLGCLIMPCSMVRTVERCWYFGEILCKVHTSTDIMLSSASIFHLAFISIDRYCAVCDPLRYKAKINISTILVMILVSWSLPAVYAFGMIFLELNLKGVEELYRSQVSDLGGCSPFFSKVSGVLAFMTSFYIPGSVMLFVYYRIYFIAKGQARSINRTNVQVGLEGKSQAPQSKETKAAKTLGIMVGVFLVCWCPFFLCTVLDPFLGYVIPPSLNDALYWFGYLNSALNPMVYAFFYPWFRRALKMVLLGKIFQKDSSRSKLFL
Nature of the data set: Radioligand binding with [3H]-rac-2-(1,2,3,4-tetrahydro-1-naphthyl)-2-imidazoline on membranes of HEK293 cells stably expressing TAAR1. Conditions: mouse TAAR1; competition with [3H]-rac-2-(1,2,3,4-tetrahydro-1-naphthyl)-2-imidazoline at 60 nM, 4° C., 30 min. The protocol: For the construction of expression plasmids the coding sequences of human, rat and mouse TAAR 1 were amplified from genomic DNA essentially as described by Lindemann et al.. The Expand High Fidelity PCR System (Roche Diagnostics) was used with 1.5 mM Mg^2+ and purified PCR products were cloned into pCR2.1-TOPO cloning vector (Invitrogen) following the instructions of the manufacturer. PCR products were subcloned into the pIRESneo2 vector (BD Clontech, Palo Alto, Calif.), and expression vectors were sequence verified before introduction in cell lines.
HEK293 cells (ATCC # CRL-1573) were cultured essentially as described Lindemann et al. (2005). For the generation of stably transfected cell lines HEK293 cells were transfected with the pIRESneo2 expression plasmids containing the TAAR coding sequences (described above) with Lipofectamine 2000 (Invitrogen) according to the instructions of the manufacturer, and 24 hrs post transfection the culture medium was supplemented with 1 mg/ml G418 (Sigma, Buchs, Switzerland). After a culture period of about 10 d clones were isolated, expanded and tested for responsiveness to trace amines (all compounds purchased from Sigma) with the cAMP Biotrak Enzyme immunoassay (EIA) System (Amersham) following the non-acetylation EIA procedure provided by the manufacturer.
Cells at confluence were rinsed with ice-cold phosphate buffered saline without Ca^2+ and Mg^2+ containing 10 mM EDTA and pelleted by centrifugation at 1000 rpm for 5 min at 4° C. The pellet was then washed twice with ice-cold phosphate buffered saline and cell pellet was frozen immediately by immersion in liquid nitrogen and stored until use at −80° C. Cell pellet was then suspended in 20 ml HEPES-NaOH (20 mM), pH 7.4 containing 10 mM EDTA, and homogenized with a Polytron (PT 3000, Kinematica) at 10,000 rpm for 10 s. The homogenate was centrifuged at 48,000×g for 30 min at 4° C. and the pellet resuspended in 20 ml HEPES-NaOH (20 mM), pH 7.4 containing 0.1 mM EDTA (buffer A), and homogenized with a Polytron at 10,000 rpm for 10 s. The homogenate was then centrifuged at 48,000×g for 30 min at 4° C. and the pellet resuspended in 20 ml buffer A, and homogenized with a Polytron at 10,000 rpm for 10 s. Protein concentration was determined by the method of Pierce (Rockford, Ill.). The homogenate was then centrifuged at 48,000×g for 10 min at 4° C., resuspended in HEPES-NaOH (20 mM), pH 7.0 including MgCl2 (10 mM) and […] homogenized with a Polytron at 10,000 rpm for 10 s.
Binding assay was performed at 4° C. in a final volume of 1 ml, and with an incubation time of 30 min. The radioligand [^3H]-rac-2-(1,2,3,4-tetrahydro-1-naphthyl)-2-imidazoline was used at a concentration equal to the calculated Kd value of 60 nM to give a bound at around 0.1% of the total added radioligand concentration, and a specific binding which represented approximately 70-80% of the total binding. Non-specific binding was defined as the amount of [^3H]-rac-2-(1,2,3,4-tetrahydro-1-naphthyl)-2-imidazoline bound in the presence of the appropriate unlabelled ligand (10 μM). Competing ligands were tested in a wide range of concentrations (10 pM-30 μM). […] Each experiment was performed in duplicate. All incubations were terminated by rapid filtration through UniFilter-96 plates (Packard Instrument Company) and glass filter GF/C, pre-soaked for at least 2 h in polyethylenimine 0.3%, and using a Filtermate 96 Cell Harvester (Packard Instrument Company). The tubes and filters were then washed 3 times with 1 ml aliquots of cold buffer B. Filters were not dried and soaked in Ultima gold (45 μl/well, Packard Instrument Company) and bound radioactivity was counted by a TopCount Microplate Scintillation Counter (Packard Instrument Company).
For the molecule `Brc1cccc2c1CCCC2C1=NCCN1` (racemic) [Example 1, rac-2-(5-Bromo-1,2,3,4-tetrahydro-naphthalen-1-yl)-4,5-dihydro-1H-imidazole], the Ki came out at 0.009 µM.
Still for that read-out and setting: as for `Cc1cc(C)c2c(c1)C(C1=NCCN1)CCC2` (racemic) [Example 2, rac-2-(5,7-Dimethyl-1,2,3,4-tetrahydro-naphthalen-1-yl)-4,5-dihydro-1H-imidazole], the figure is 0.011 µM; as for `Fc1cc(Cl)cc2c1CCCC2C1=NCCN1` (racemic) [Example 3, rac-2-(7-Chloro-5-fluoro-1,2,3,4-tetrahydro-naphthalen-1-yl)-4,5-dihydro-1H-imidazole], 0.054 µM; as for `Cc1cc(C)c2c(c1)C(c1ncc[nH]1)CCC2` (racemic) [Example 10, rac-2-(5,7-Dimethyl-1,2,3,4-tetrahydro-naphthalen-1-yl)-1H-imidazole], 0.013 µM.
On the same count and under the same terms, to `c1ccc2c(c1)OCCC2C1=NCCN1` (racemic) [Example 11, rac-2-Chroman-4-yl-4,5-dihydro-1H-imidazole] belongs 0.017 µM; to `c1ccc2c(c1)OCCC2c1ncc[nH]1` (racemic) [Example 12, rac-2-Chroman-4-yl-1H-imidazole], 0.054 µM; to `Clc1ccc2c(c1)CCCC2C1=NCCN1` (racemic) [Example 18, rac-2-(6-chloro-1,2,3,4-tetrahydro-naphthalen-1-yl)-4,5-dihydro-1H-imidazole], 0.058 µM.
On the same count and under the same terms, as for `Clc1cccc2c1CCCC2C1=NCCN1` (racemic) [Example 19, rac-2-(5-chloro-1,2,3,4-tetrahydro-naphthalen-1-yl)-4,5-dihydro-1H-imidazole], the figure is 0.013 µM.
Molecule `COc1ccc2c(c1)C(C1=NCCN1)CCC2` (racemic) [Example 20, rac-2-(7-Methoxy-1,2,3,4-tetrahydro-naphthalen-1-yl)-4,5-dihydro-1H-imidazole] had a Ki of 0.051 µM.
Still for that read-out and setting: as for `COc1ccc2c(c1)CCCC2C1=NCCN1` (racemic) [Example 21, rac-2-(6-methoxy-1,2,3,4-tetrahydro-naphthalen-1-yl)-4,5-dihydro-1H-imidazole], the figure is 0.009 µM; as for `COc1cccc2c1CCCC2C1=NCCN1` (racemic) [Example 22, rac-2-(5-methoxy-1,2,3,4-tetrahydro-naphthalen-1-yl)-4,5-dihydro-1H-imidazole], 0.025 µM.
For `Clc1cc(Cl)c2c(c1)C(c1ncc[nH]1)CCO2` (racemic) [Example 36, rac-2-(6,8-Dichloro-chroman-4-yl)-1H-imidazole], the affinity corresponds to a Ki of 0.053 µM.
Still for that read-out and setting: to `c1ccc2c(c1)NCCC2c1ncc[nH]1` (racemic) [Example 41, rac-4-(1H-Imidazol-2-yl)-1,2,3,4-tetrahydro-quinoline] belongs 0.061 µM.
Same read-out and setting: to `c1ccc2c(c1)CCCC2c1c[nH]cn1` (racemic) [Example 56, rac-4-(1,2,3,4-Tetrahydro-naphthalen-1-yl)-1H-imidazole] belongs 0.006 µM; to `Cc1ccc2c(c1)OCCC2c1cnc[nH]1` (racemic) [Example 60, rac-5-(7-Methyl-chroman-4-yl)-1H-imidazole or tautomer], 0.008 µM.
Same read-out and setting: as for `Fc1ccc2c(c1)C(c1cnc[nH]1)CCO2` (racemic) [Example 62, rac-5-(6-Fluoro-chroman-4-yl)-1H-imidazole or tautomer], the figure is 0.004 µM; as for `Fc1ccc2c(c1)OCCC2c1cnc[nH]1` (racemic) [Example 65, rac-5-(7-Fluoro-chroman-4-yl)-1H-imidazole or tautomer], 0.004 µM; as for `Cc1cccc2c1C(c1cnc[nH]1)CCO2` (racemic) [Example 66, rac-5-(5-Methyl-chroman-4-yl)-1H-imidazole or tautomer], 0.037 µM.
In the case of `Fc1cccc2c1C(c1cnc[nH]1)CCO2` (racemic) [Example 67, rac-5-(5-Fluoro-chroman-4-yl)-1H-imidazole or tautomer], the Ki was 0.032 µM.
The same measure, in the same setting: as for `c1ccc2c(c1)OCCC2c1cnc[nH]1` (racemic) [Example 69, rac-5-Chroman-4-yl-1H-imidazole hydrochloride or tautomer], the figure is 0.025 µM; as for `C1=C(c2cnc[nH]2)c2ccccc2CC1` [Example 55], 0.011 µM.
On the same count and under the same terms, as for `Clc1cccc2c1OCC=C2c1cnc[nH]1` [Example 63, 5-(8-Chloro-2H-chromen-4-yl)-1H-imidazole or tautomer], the figure is 0.02 µM; as for `Clc1ccc2c(c1)C(c1cnc[nH]1)=CCO2` [Example 64, 5-(6-Chloro-2H-chromen-4-yl)-1H-imidazole or tautomer], 0.016 µM.

The same data set, now with this note: radioligand used at a concentration equal to its calculated Kd; species of TAAR1 not given.
For `c1ccc2c(c1)CCCC2C1=NCCN1` (racemic) [[^3H]-rac-2-(1,2,3,4-tetrahydro-1-naphthyl)-2-imidazoline, reference compound], the Kd was 0.06 µM.

Test system in another data set: not given
Assay: not given
Settings: not given
As to `Brc1ccc2c(c1)C(C1=NCCN1)CCC2` (racemic), the melting point was in the range of 156 to 158 °C.
The same measure, in the same setting: as for `Cc1cc(C)c2c(c1)C(c1ncc[nH]1)CCC2` (racemic) [Example 10, rac-2-(5,7-Dimethyl-1,2,3,4-tetrahydro-naphthalen-1-yl)-1H-imidazole], the figure is 161 to 163 °C.
